In US20160346255A1, “METHODS, AGENTS AND COMPOSITIONS FOR TREATMENT OF INFLAMMATORY CONDITIONS” (Betanien Hospital, priority 2014, published 2016):

Tests used:
Assay type in all cases: in vivo, human
[1] = test system: Patient with Psoriatic Arthritis; experiment: Psoriatic arthritis patient treated with oral ASP1707; settings: 3 mg daily for 12 weeks; response at 4 months
Experimental: • person with psoriatic arthritis • Fulfills CASPAR 2006 classification criteria for psoriatic arthritis.
• Is offered experimental GnRH antagonist therapy, ASP1707 3 mg daily for 12 weeks.

[2] = test system: post-menopausal female with rheumatoid arthritis; experiment: Post-menopausal RA patients on methotrexate, oral ASP1707 30 mg twice daily for 12 weeks; settings: ASP1707+MTX; Week 12; assuming placebo+MTX 30%
Experimental: • Patient is offered experimental GnRH antagonist therapy, ASP1707 30 mg twice daily for 12 weeks orally. Primary Assessment is ACR20 response rate at 12 weeks.

[3] = test system: patient with cancer-related inflammation; experiment: Cancer-related inflammation, colon cancer patient treated with oral ASP1707; settings: 8 mg daily, at 3 months
Description: • person with colon cancer with disease duration of 1 year. Suffers from signs and symptoms of cancer-related inflammation, such as pain, anorexia, and fatigue.

C[C@@H](O)C(=N)NS(=O)(=O)c1cc(C(=O)C(C(=O)c2cc(F)ccc2F)=C2Nc3ccccc3N2)ccc1F [ASP1707, (2R)—N-({5-[3-(2,5-difluorophenyl)-2-(1,3-dihydro-2H-benzoimidazol-2-ylidene)-3-oxopropanoyl]-2-fluorophenyl}sulfonyl)-2-hydroxypropanimidamide]
DAS reduction [1]: over 0.6 units | ACR20 response rate [2]: 60% | Signs and symptoms of cancer related inflammation (pain, anorexia, fatigue) [3]: reduced | CRP ([3]; baseline 40 mg/L): 12 mg/L
